Laboratory results from patent US20080076666A1, “Formulation” (priority 2005, published 2008).
Converted amounts (≈) assume the structure as drawn. Where two headings read alike, the source gives them in different places.

Legend:
[1] = Water solubility of UV protection dyes (Table 1); details: for solubility: water
[2] = Photo stabilisation study of COMPOUND (V) in gelatine microcapsules exposed to daylight (HPLC); assay type: physicochemical
Description: The HPLC system was from Waters comprising of two 510 pumps, a 717 plus Autosampler, a System Interface Module, a Lambda-Max 480 detector and Millennium Chromatography Manager software. Chromatography was achieved on a Zorbax ODS 5 μm C18 analytical column of dimension 4.6×250 mm internal diameter maintained at 35° C. Mobile phases were unmodified water (Milli-Q grade) in reservoir A and unmodified acetonitrile in reservoir B. Linear gradient elution was used with 70 to 90% B over the first 10 minutes, then 100% B for 3 minutes and returning to 70% B over 4 minutes. Injection cycle time was 20 minutes with a flow rate of 2 ml/min. The samples were either dissolved in acetonitrile or diethyl ether and 10 μl volume injected on to the column which was maintained at 35° C. Prior to use, mobile phase were degassed under vacuum with sonication and continuously sparged with helium. The naphthoquinones were detected by measurement of UV absorbance at 269 nm.
A batch of gelatine microcapsules containing 300 mg of COMPOUND (V) in 15 ml of Exxsol® D100 was produced.
The capsule slurry was washed repeatedly with water to remove debris and filtered to obtain a wet cake. An aliquot of the wet cake (11.3 g) was made up to 50 ml and dyed brown with Chocolate Brown (500 mg, equivalent to 10 mg/ml solution). Aliquots (200 μl) of microcapsule slurry of brown and undyed capsules were applied to glass microscope slides in duplicate. The slurry from each batch was spread to form a monolayer of microcapsules on each slide. The slides were air dried in a dark at room temperature (≅21° C.) and exposed to daylight on a south-facing windowsill for various time periods. Two slides from each batch were analysed per time point post of exposure. Unexposed slides stored in the dark were used as time zero reference.
The contents of the capsules were extracted by rupturing the capsules, by rolling a glass rod on the slides, and washing both the rod and the slide with diethyl ether. The extracts were made up to 10 ml and assayed by HPLC.

Row | WATER SOLUBILITY [1] | Compound | also measured
1 | 50 mg/mL | CC1=NN(c2ccc(S(=O)(=O)[O-])cc2)C(=O)C1N=Nc1ccc(-c2ccc(N=Nc3ccc(OS(=O)(=O)c4ccc(C)cc4)cc3)c(S(=O)(=O)[O-])c2)cc1.[Na+].[Na+] (centres unmarked) [Acid Orange 63] | 
2 | 20 mg/mL | Cc1nn(-c2ccccc2)c([O-])c1N=Nc1cc([N+](=O)[O-])cc(S(=O)(=O)[O-])c1[O-].[Cr+3].[Na+].[OH-] [Acid Orange 74] | 
3 |  | Cc1cc(N=Nc2ccc(C)c(N=Nc3cc(C)c(N)cc3N)c2)c(N)cc1N [Bismark Brown R] | solubility [1]: 70 mg/mL (≈ 180 mM)
4 | 50 mg/mL | Nc1ccc(N=Nc2cccc(N=Nc3ccc(N)cc3N)c2)c(N)c1 [Bismark Brown Y] | 
5 |  | Cc1c(C2(c3cc(Br)c(O)c(Br)c3C)OS(=O)(=O)c3ccccc32)cc(Br)c(O)c1Br [Bromocresol Green] | solubility [1]: 6 mg/mL (≈ 8.6 mM)
6 |  | CC(=O)OC1=C(C(C)CCC[Si](C)(C)C)C(=O)c2ccccc2C1=O (centres unmarked) [COMPOUND (V)] | amount of COMPOUND (V) in capsules, of the initial amount ([2]; Chocolate Brown dyed impervious gelatine microcapsules, 88 hours exposure to daylight (8 hours daylight over 11 days)): ~80%; amount of COMPOUND (V) in capsules, of the initial amount ([2]; undyed impervious gelatine microcapsules, 6 hours exposure to daylight): 60%; amount of COMPOUND (V) in capsules, of the initial amount ([2]; undyed impervious gelatine microcapsules, 16 hours exposure to daylight): 23%; amount of COMPOUND (V) in capsules, of the initial amount ([2]; undyed impervious gelatine microcapsules, 40 hours exposure to daylight (8 hours daylight over 5 days)): 6%; period for which COMPOUND (V) was stabilised on exposure to daylight ([2]; within impervious gelatine microcapsules (Chocolate Brown dyed)): in excess of eleven-days
7 |  | Nc1c(/N=N/c2ccc(-c3ccc(/N=N/c4cc(S(=O)(=O)O)c5ccccc5c4N)cc3)cc2)cc(S(=O)(=O)O)c2ccccc12 [Congo Red] | solubility [1]: 40 mg/mL (≈ 61.3 mM)
8 | 40 mg/mL | O=S(=O)([O-])c1ccc2c(N=Nc3ccccc3)c(O)ccc2c1.[Na+] [Crocein Orange G] | 
9 | 1 mg/mL | CC(=O)Nc1ccc2nc3c4ccccc4c(=N)cc-3oc2c1.Cl [Darrow Red] | 
10 | 100 mg/mL | CCN(CC)c1ccc(N=Nc2ccc(S(=O)(=O)[O-])cc2)cc1.[K+] [Ethyl Orange] | 
11 | 3 mg/mL | CCN(CC)c1ccc(N=Nc2ccccc2C(=O)O)cc1 [Ethyl Red] | 
12 |  | CN(C)c1ccc(/N=N/c2ccccc2C(=O)O)cc1 [Methyl Red] | solubility [1]: 2 mg/mL (≈ 7.43 mM)
13 | 60 mg/mL | Nc1cc(N)c(N=Nc2cccc3c(S(=O)(=O)O)cccc23)cc1N=Nc1cc([N+](=O)[O-])ccc1O.[Na] [Mordant Brown 1] | 
14 |  | Cc1cc(N=Nc2cc([N+](=O)[O-])cc([N+](=O)[O-])c2O)c(N)cc1N [Mordant Brown 4] | WATER SOLUBILITY ([1]; hot water (remark)): 60 mg/mL
15 | 20 mg/mL | Nc1cc(N)c(S(=O)(=O)[O-])cc1N=Nc1cc([N+](=O)[O-])ccc1O.[Na+] [Mordant Brown 33] | 
16 | 40 mg/mL | Nc1cc(N)c(N=Nc2cc([N+](=O)[O-])cc([N+](=O)[O-])c2O)cc1Cl [Mordant Brown 48] | 
17 | 30 mg/mL | Acid Orange 51 | 

Row | Compound | WATER SOLUBILITY [1] | also measured
18 | O=S1(=O)OC(c2ccc(O)c(Cl)c2)(c2ccc(O)c(Cl)c2)c2ccccc21 [Chlorophenol Red] | 60 mg/mL | 
19 | Cc1cc(O)ccc1C1(c2ccc(O)cc2C)OS(=O)(=O)c2ccccc21 [m-Cresol Purple] | 2 mg/mL | 
